In patent publication EP4782449A1, “TRICYCLIC PYRIDINE COMPOUND ACTING AS SARM1 ENZYME ACTIVITY INHIBITOR, AND USE THEREOF” (Artivila (ShenZhen) Innovation Center, Ltd., priority 2023, dated 2025):
pIC50: −log10 of the molar value.

Columns and labels:
SARM1 = target: T1, SARM1 (Homo sapiens, UniProt Q6SZW1); assay: In vitro biochemical assay for inhibiting SARM1 enzyme activity (PC6 fluorescence, NADase); conditions: full-length SARM1 from transfected HEK293 cells; 50 µM NAD, 50 µM PC6, 50 µM NMN activator; room temperature, 30 minutes; read-out: IC50
T1 construct: inventors produced full-length SARM1 for NAD enzyme activity experiments, and used it for screening; His (C); made in house; host or cells: HEK293 cells, transient transfection; supernatant of digitonin lysate, no further purification described
T1 sequence (Q6SZW1 28-724): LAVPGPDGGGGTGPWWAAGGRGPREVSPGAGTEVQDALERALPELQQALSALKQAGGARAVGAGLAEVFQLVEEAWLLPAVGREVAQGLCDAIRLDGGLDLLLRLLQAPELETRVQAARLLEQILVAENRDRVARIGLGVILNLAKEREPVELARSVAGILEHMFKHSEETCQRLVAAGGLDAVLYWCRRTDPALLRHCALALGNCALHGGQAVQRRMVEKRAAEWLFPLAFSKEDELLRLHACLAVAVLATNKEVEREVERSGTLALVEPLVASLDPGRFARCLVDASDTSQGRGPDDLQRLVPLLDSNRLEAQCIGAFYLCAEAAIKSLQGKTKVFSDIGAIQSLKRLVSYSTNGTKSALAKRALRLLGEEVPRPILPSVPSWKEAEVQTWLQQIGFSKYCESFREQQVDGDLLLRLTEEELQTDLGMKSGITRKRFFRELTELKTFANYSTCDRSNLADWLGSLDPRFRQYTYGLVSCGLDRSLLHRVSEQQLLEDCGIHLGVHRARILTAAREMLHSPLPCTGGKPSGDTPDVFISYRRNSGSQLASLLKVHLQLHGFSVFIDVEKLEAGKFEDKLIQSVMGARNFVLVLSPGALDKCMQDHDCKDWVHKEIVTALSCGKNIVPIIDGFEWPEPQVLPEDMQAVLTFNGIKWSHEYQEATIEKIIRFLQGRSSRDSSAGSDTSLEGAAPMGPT
Procedure: The gene sequence of SARM1 protein was amplified using PCR, and the PCR amplification product was constructed into pcDNA3.1-HIS-C plasmid. The above construction was completed by YouBio(Hunan, China). HEK293 cells were cultured in 10 cm dishes using DMEM, and the cells were transfected with 15 μg pcDNA3.1-SARM[…]-C expression plasmid on the following day. Cells were collected 48 hours after transfection, and SARM1 protein expressed in the cells was obtained by digitonin lysis for in vitro activity assay experiments. The specific procedure was as follows: Cells were digested with trypsin-EDTA, then centrifuged at 1000 rpm for 5 minutes, washed once with PBS, and then resuspended in PBS containing 100 μM digitonin, with 0.6 mL PBS for the cells in per 10 cm dish, and lysed for 5 minutes. […] Then the supernatant containing SARM1 protein was collected by centrifugation at 5000 rpm for 10 minutes. […] A group without inhibitor was used as control group. All mixtures were incubated at room temperature for 10 minutes. Then, 50 μM NAD and 50 μM PC6 as substrates and 50 μM NMN as an activator were added to the SARM1 protein incubated with the inhibitor, and the reaction was carried out at room temperature for 30 minutes. The concentrations of each component were the final concentrations in the reaction system. […] Finally, the reaction rate was used to represent the protein activity and calculate the half-maximal inhibitory concentration.

[1] = system: dorsal root ganglion explants; assay: Axonal Wallerian degeneration assay in mouse DRG explant culture; assay type: cell-based, C57BL/6 male mice; conditions: 10 µM test compound, 2 hours pretreatment, axons transected, images at 0 hour and 24 hours
Description: The experimental method was based on Gerdts J et al. (Gerdts J, Sasaki Y, Vohra B, Marasa J, Milbrandt J. Image-based screening identifies novel roles for IkappaB kinase and glycogen synthase kinase 3 in axonal degeneration. J Biol Chem. 2011 Aug 12;286(32):28011-8).
Dorsal root ganglia were dissected from 2-month-old C57BL/6 male mice and placed in 35 mm culture dishes containing pre-cooled HBSS buffer. Excess tissue from each dorsal root ganglion was removed and cut into 2-3 explants using a scalpel, and the explants were planted in wells of a 96-well plate coated with 100 ng/mL Matrigel (Corning). 100 µL of DRG culture medium (Neurobasal medium (Gibco) containing 2% B-27 (Gibco), 1% GlutaMax (Gibco), and 10 ng/mL NGF (MCE)) was added, then cultured in a 37°C incubator for one week, with medium change on day 4, and experiments were performed on day 8.
0.1 µL of 10 mM test compound was dissolved in 100 µL DRG culture medium to prepare new culture medium containing 10 µM test compound. The culture medium in the 96-well plate was aspirated and new culture medium containing the test compound was added. Then the dorsal root ganglion explants were incubated with the medium in a 37°C incubator for 2 hours for pre-protection. After 2-hour pretreatment, a glass electrode was used to transect axons in the area near the tissue block, and bright-field images of axons in the same area were captured at 0 hour and 24 hours post axonal degeneration using a 20x objective lens of a microscope (Olympus). Axonal integrity was evaluated using an in-house developed script.

SMILES | pIC50 (SARM1) | Degree of Protection Against Axonal Wallerian Degeneration [1]
O=C(CCc1cccc2ccccc12)Nc1ccc2c(c1)COc1cnccc1-2 [Compound 82] | 5.00 to 6.00 | –
O=C1C(Cc2ccc(F)cc2F)CCN1c1ccc2c(c1)COc1cnccc1-2 (stereo not shown) [Compound 11] | 5.00 to 6.00 | A (substantial protection (A) >50%)
O=C(CCc1ccccc1)Nc1ccc2c(c1)COc1cnccc1-2 [Compound 38] | > 7.00 | –
C#Cc1ccc(CCC(=O)Nc2ccc3c(c2)COc2cnccc2-3)cc1 [Compound 148] | > 7.00 | –
O=C1C(Cc2ccc(F)cc2)CCCN1c1ccc2c(c1)COc1cnccc1-2 (stereo not shown) [Compound 137] | 6.00 to 7.00 | A (substantial protection (A) >50%)
O=C1C(Cc2ccc3ccsc3c2)CCN1c1ccc2c(c1)COc1cnccc1-2 (stereo not shown) [Compound 58] | 5.00 to 6.00 | B (partial protection (B): 20% to 50%)
[2H]C1(Cc2ccc(F)cc2)CCN(c2ccc3c(c2)C([2H])([2H])Oc2cnccc2-3)C1=O (stereo not shown) [Compound 143, 3-(4-fluorobenzyl)-1-(6H-isochromeno[3,4-c]pyridin-8-yl-6,6-d2)pyrrolidin-2-one-3d] | > 7.00 | A (substantial protection (A) >50%)
O=C(NCc1cccc(F)c1)Nc1ccc2c(c1)COc1cnccc1-2 [Compound 47] | 6.00 to 7.00 | A (substantial protection (A) >50%)
O=C(CCc1cccc(Cl)c1)Nc1ccc2c(c1)COc1cnccc1-2 [Compound 31] | > 7.00 | –
O=C(CCc1ccccc1)Nc1cnc2c(c1)COc1cnccc1-2 [Compound 95] | > 7.00 | B (partial protection (B): 20% to 50%)
O=C(CCc1ccc(Br)cc1)Nc1ccc2c(c1)COc1cnccc1-2 [Compound 22] | 6.00 to 7.00 | A (substantial protection (A) >50%)
O=C1[C@@H](Cc2ccc(F)cc2)CCN1c1ccc2c(c1)COc1cnccc1-2 [Compound 155] | > 7.00 | –
O=C(Cc1ccc(F)cc1)Nc1ccc2c(c1)COc1cnccc1-2 [Compound 51] | 5.00 to 6.00 | –
O=C(CCc1ccc2ccccc2c1)Nc1ccc2c(c1)COc1cnccc1-2 [Compound 81] | 5.00 to 6.00 | –
CN(Cc1ccc(F)cc1)C(=O)Nc1cnc2c(c1)COc1cnccc1-2 [Compound 153] | > 7.00 | –
O=C(NCc1cc(F)cc(F)c1)Nc1ccc2c(c1)COc1cnccc1-2 [Compound 48] | 6.00 to 7.00 | –
O=C1[C@H](Cc2ccc(F)cc2)CCN1c1ccc2c(c1)COc1cnccc1-2 [Compound 154] | > 7.00 | –
O=C(CCc1ccc(Cl)nc1)Nc1ccc2c(c1)COc1cnccc1-2 [Compound 26] | > 7.00 | –
NC(Cc1ccc(F)cc1)C(=O)Nc1ccc2c(c1)COc1cnccc1-2 (stereo not shown) [Compound 52, 2-amino-3-(4-fluorophenyl)-N-(6H-isochromeno[3,4-c]pyridin-8-yl)propanamide] | 6.00 to 7.00 | –
CC(C)c1cncc2c1-c1ccc(NC(=O)CCc3ccc(F)cc3)cc1CO2 [Compound 141] | 5.00 to 6.00 | –
O=C(Nc1ccc2c(c1)COc1cnccc1-2)C(F)Cc1ccc(Cl)cc1 (stereo not shown) [Compound 35] | 6.00 to 7.00 | –
O=C(NCc1ccc(Cl)nc1)Nc1ccc2c(c1)COc1cnccc1-2 [Compound 66] | 6.00 to 7.00 | –
N#Cc1c(F)cc(CCC(=O)Nc2ccc3c(c2)COc2cnccc2-3)cc1F [Compound 44] | > 7.00 | –
CN(C(=O)CCc1ccc(F)cc1)c1ccc2c(c1)COc1cnccc1-2 [Compound 49, 3-(4-fluorophenyl)-N-(6H-isochromeno[3,4-c]pyridin-8-yl)-N-methylpropanamide] | 5.00 to 6.00 | –
O=C1C(Cc2ccc(Cl)cc2F)CCN1c1ccc2c(c1)COc1cnccc1-2 (stereo not shown) [Compound 3] | 5.00 to 6.00 | –
O=C(NCc1ccc2c(c1)OCO2)Nc1ccc2c(c1)COc1cnccc1-2 [Compound 64] | 5.00 to 6.00 | –
O=C1C(Cc2ccc(F)cc2)CCN1c1ccc2c(c1)COCc1cnccc1-2 (stereo not shown) [Compound 53, 1-(5,7-dihydrobenzo[5,6]oxepino[3,4-c]pyridin-9-yl)-3-(4-fluorobenzyl)pyrrolidin-2-one] | 5.00 to 6.00 | –
Cc1ccc(CC2CCN(c3ccc4c(c3)COc3cnccc3-4)C2=O)cc1 (stereo not shown) [Compound 8] | 5.00 to 6.00 | –

Further lines, with some results ahead:

pIC50 (SARM1) | SMILES | Degree of Protection Against Axonal Wallerian Degeneration [1]
5.00 to 6.00 | O=C(CCc1ccc([N+](=O)[O-])cc1)Nc1ccc2c(c1)COc1cnccc1-2 [Compound 23] | –
> 7.00 | CC1Oc2cnccc2-c2ccc(N3CCC(Cc4ccc(F)cc4)C3=O)cc21 (stereo not shown) [Compound 147, 3-(4-fluorobenzyl)-1-(6-methyl-6H-isochromeno[3,4-c]pyridin-8-yl)pyrrolidin-2-one] | A (substantial protection (A) >50%)
6.00 to 7.00 | CC(Cc1ccc(F)cc1)C(=O)Nc1ccc2c(c1)COc1cnccc1-2 (stereo not shown) [Compound 73] | A (substantial protection (A) >50%)
> 7.00 | O=C(CCc1c(F)c(F)c(F)c(F)c1F)Nc1ccc2c(c1)COc1cnccc1-2 [Compound 80] | A (substantial protection (A) >50%)
> 7.00 | O=C(CCc1cc(F)c(Cl)c(F)c1)Nc1ccc2c(c1)COc1cnccc1-2 [Compound 43] | –
5.00 to 6.00 | Cc1c(NC(=O)CCc2ccc(F)cc2)ccc2c1COc1cnccc1-2 [Compound 131, 3-(4-fluorophenyl)-N-(7-methyl-6H-isochromeno[3,4-c]pyridin-8-yl)propanamide] | –
> 7.00 | [2H]C1([2H])Oc2cnccc2-c2ccc(N3CCC(Cc4ccc(F)cc4)C3=O)cc21 (stereo not shown) [Compound 146, 3-(4-fluorobenzyl)-1-(6H-isochromeno[3,4-c]pyridin-8-yl-6,6-d2)pyrrolidin-2-one] | A (substantial protection (A) >50%)
6.00 to 7.00 | O=C(CCc1ccc2c(c1)CCO2)Nc1ccc2c(c1)COc1cnccc1-2 [Compound 83] | –
5.00 to 6.00 | O=C(NCc1cccc(Cl)c1)Nc1ccc2c(c1)COc1cnccc1-2 [Compound 69] | –
5.00 to 6.00 | O=C1C(Cc2ccc(C(F)(F)F)cc2)CCN1c1ccc2c(c1)COc1cnccc1-2 (stereo not shown) [Compound 14] | –
5.00 to 6.00 | CN(C)c1ccc(CCC(=O)Nc2ccc3c(c2)COc2cnccc2-3)cc1 [Compound 79] | –
> 7.00 | O=C(CCc1ccc2c(c1)OCO2)Nc1ccc2c(c1)COc1cnccc1-2 [Compound 20] | –
> 7.00 | O=C1N(Cc2ccc(F)cc2)CCN1c1ccc2c(c1)COc1cnccc1-2 [Compound 150] | –
5.00 to 6.00 | C=Cc1ccc(CC2CCN(c3ccc4c(c3)COc3cnccc3-4)C2=O)cc1 (stereo not shown) [Compound 149] | –
6.00 to 7.00 | O=C(CCc1ccc(OC(F)(F)F)cc1)Nc1ccc2c(c1)COc1cnccc1-2 [Compound 24] | –
6.00 to 7.00 | O=C1C(Cc2ccc3ocnc3c2)CCN1c1ccc2c(c1)COc1cnccc1-2 (stereo not shown) [Compound 61] | –
